Assay results published in patent US7063946B2, “Methods, reagents, kits and apparatus for protein function analysis” (Meso Scale Technologies, LLC., priority 2001, dated 2006).

Assays:
[1] = system: pooled phosphopeptide:BSA conjugates (Pools A-D); assay: Coded multiplex phosphopeptide binding assay with pooled peptide:BSA conjugates on 4 spots; settings: for ECL signal, spot A: Pool A, EGFR-pTyr1148, IkBa-24ppC, Myc-p58Tp62S; for ECL signal, spot B: Pool B, EGFR-pTyr992, EGFR-pTyr1148, Smad3C; for ECL signal, spot C: Pool C, EGFR-pTyr1068, IkBa-24ppC, Smad3C; for ECL signal, spot D: Pool D, EGFR-pTyr992, EGFR-pTyr1068, Myc-p58Tp62S
Source text: To prepare the Multi-Spot IPR plates, in this example we made use of pools of the peptide:BSA conjugates to coat each of 4 spots per well in a 96 well plate. To achieve this we made the following pools; • Pool A; EGFR-pTyr1148, IkBa-24ppC, Myc-p58Tp62S. • Pool B; EGFR-pTyr992, EGFR-pTyr1148, Smad3C. • Pool C; EGFR-pTyr1068, IkBa-24ppC, Smad3C. • Pool D; EGFR-pTyr992, EGFR-pTyr1068, Myc-p58Tp62S.
This combination of the various peptides results in any single peptide being present in two pools. Each of these four pools is then spotted on to a unique spot in a 4 spot array. In this way any single binding protein with specificity for only one of the peptides would bind to two spots; the identity of the two spots would allow the identification of the peptide involved in the binding reaction.
Typically approximately 120 fmole of peptide:BSA conjugate in 0.25 μl was deposited on each spot of a 4-spot multi-array IPR plates using a BioDot Dispenser (Bio-Dot Inc., vIrvine Calif.). At this stage, the plates were dried then used or stored under desiccated condition. A few hours prior to usage, the plates were rehydrated and blocked with 3% BSA, in PBS.
To test the system the following EST clones IMAGE # 3491843, 4237375, 4398016, 4419252, 3872466, 3907115 were obtained. These clones express the following genes βTRCP1, βTRCP2, Grb2, PLCγ, CBP and Shc1, respectively. […] These DNAs were used to produce proteins as described in the Materials and Methods. Proteins were transferred to a well of the 4 spot peptide-coated and BSA blocked ECL plates. The binding assay (using Sulfo-TAG labeled streptavidin as a detection agent) was carried our according to the procedures described in Example 11.

[2] = target: T1, Epha7 (Mus musculus, UniProt Q61772); assay: Kinase inhibitor profiling, autophosphorylation; format: biochemical
T1 construct: autophosphorylation activity from full-length clones Spleen Tyrosine Kinase (SYK) and Eph receptor-A7 (EphA7); host or cells: rabbit reticulocyte lysate, TnT coupled in vitro transcription/translation (cell-free)
T1 sequence (Q61772 28-998): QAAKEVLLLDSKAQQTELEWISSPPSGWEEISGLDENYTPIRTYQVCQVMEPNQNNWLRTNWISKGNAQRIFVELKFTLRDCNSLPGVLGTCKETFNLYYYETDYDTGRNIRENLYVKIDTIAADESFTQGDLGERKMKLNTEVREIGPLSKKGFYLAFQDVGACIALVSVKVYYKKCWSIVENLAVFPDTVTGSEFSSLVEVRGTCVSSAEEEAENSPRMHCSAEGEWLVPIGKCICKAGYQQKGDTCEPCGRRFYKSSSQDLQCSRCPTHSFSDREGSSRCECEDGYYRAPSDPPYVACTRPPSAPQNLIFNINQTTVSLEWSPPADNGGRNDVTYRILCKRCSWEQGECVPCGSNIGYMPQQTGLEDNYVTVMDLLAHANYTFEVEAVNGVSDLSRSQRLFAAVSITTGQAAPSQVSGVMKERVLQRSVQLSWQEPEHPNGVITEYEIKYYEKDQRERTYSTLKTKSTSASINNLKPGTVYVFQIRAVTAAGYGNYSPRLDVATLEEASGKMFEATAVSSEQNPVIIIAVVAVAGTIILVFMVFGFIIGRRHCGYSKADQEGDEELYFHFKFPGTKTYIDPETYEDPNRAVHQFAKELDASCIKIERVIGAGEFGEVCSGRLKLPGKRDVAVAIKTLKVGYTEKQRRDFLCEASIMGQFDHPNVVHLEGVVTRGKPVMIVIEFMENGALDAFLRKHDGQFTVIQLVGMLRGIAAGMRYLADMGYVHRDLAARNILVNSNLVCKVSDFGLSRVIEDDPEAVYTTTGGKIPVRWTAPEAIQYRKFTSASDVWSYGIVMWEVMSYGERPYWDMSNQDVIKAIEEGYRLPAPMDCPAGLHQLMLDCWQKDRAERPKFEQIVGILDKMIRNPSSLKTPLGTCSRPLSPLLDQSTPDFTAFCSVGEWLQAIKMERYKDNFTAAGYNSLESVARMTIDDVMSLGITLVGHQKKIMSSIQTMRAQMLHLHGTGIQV

Compound	Code (pattern of positive spots) [1]	Peptide determined from code [1]	ECL signal, spot A [1]	ECL signal, spot B [1]	ECL signal, spot C [1]	ECL signal, spot D [1]	Inhibition specificity towards Autophosphorylation at 10X IC50, Epha7 [2]
3872466: IMAGE clone protein: mCBP [compound 3872466]	Neg.	Negative	19	30	22	15	
3491843: IMAGE clone protein: βTRCP1 [compound 3491843]	A, C	IkBa-24ppC	9536	208	11184	171	
Cc1cc2ncc(-c3ccc(O)c(O)c3)nc2cc1C [AG-1433]							H (high inhibition (“H”=less than 25% of the activity remaining))
COc1c(C=O)c(O)cc2c1C(=O)c1ccccc1C2=O [Damnacanthal]							H (high inhibition (“H”=less than 25% of the activity remaining))
